In the NIST ThermoML archive (doi:10.1016/j.fluid.2005.12.006):
± gives the expanded uncertainty stated by the source.

experiment: refractive index (Na D-line) (dimensionless); conditions: 293.1 K; 101.33 kPa; Liquid; Standard Abbe refractometry

Row | SMILES | refractive index
1 | CCC(C)c1ccccc1 (stereo not drawn) [(1-methylpropyl)benzene] | 1.489 ± 0.0007
2 | CN(C)C=O [dimethylformamide] | 1.4281 ± 0.0007
3 | CCCCCCCCCCCC [dodecane] | 1.422 ± 0.0007
